According to patent US20250099532A1, “METHODS OF TREATMENT USING OXYTOCIN” (Belnap Pharmaceuticals, LLC, priority 2022, published 2025):

Tests used:
[1] = test system: patients; test: Clinical observations in treated patients; assay type: in vivo, human
Source text: It is imperative that patients get as quickly to the positive zone as possible. […] Anxiety is a major contributor to chronic inflammation, which decreases BDNF and the continued loss of synaptic connections.

[2] = test system: depression; settings: after a single administration; cited from earlier work

SMILES | duration of positive effects of a series of infusions ([1]; IV ketamine alone, series of infusions (e.g., six)) | relief of anxiety compared with depression ([1]; patients, ketamine treatments alone) | begin of antidepressant effects post-infusion [2] [min] | loss of superiority to placebo post-infusion [2] [days] | peak of antidepressant effects [2] | time the patient continued to stay sober ([1]; Patient 3 (alcoholic), patient attributes it to the addition of oxytocin) [months] | response of the patient's anxiety with oxytocin compared with ketamine treatment alone ([1]; Patient 10 (PTSD, Depression, and Anxiety)) | recovery from anxiety compared with ketamine infusions alone ([1]; patients, addition of oxytocin treatment) | ketamine experience when oxytocin is administered prior to the ketamine treatment ([1]; patients, oxytocin before ketamine) | recovery from depression and anxiety compared with ketamine alone ([1]; patients, oxytocin prior to ketamine treatment)
CNC1(c2ccccc2Cl)CCCCC1=O (racemic) [ketamine, Ketamine (racemic)] | one month to several (e.g., 4-6) months | a lot slower | 40 | 10 to 12 | approximately 24 h |  |  |  |  | 
CC[C@H](C)[C@@H]1NC(=O)[C@H](Cc2ccc(O)cc2)NC(=O)[C@@H](N)CSSC[C@@H](C(=O)N2CCC[C@H]2C(=O)N[C@@H](CC(C)C)C(=O)NCC(N)=O)NC(=O)[C@H](CC(N)=O)NC(=O)[C@H](CCC(N)=O)NC1=O [oxytocin] |  |  |  |  |  | 18 | much quicker | much quicker recovery | much more calm and euphoric ketamine experience | recovering much more quickly
